{"source": "patent US8163795B2", "about": "“Chroman derivatives, medicaments and use in therapy” (Marshall Edwards, Inc., priority 2004, dated 2012)", "key": {"[1]": {"system": "SKOV-3 ovarian cancer cell line", "test": "Proliferation assay (MTT)", "format": "cell-based", "conditions": "Homo sapiens, SK-OV-3; Table 2.1; Ovarian SKOV-3; read-out: IC50"}, "[2]": {"test": "HMC pharmacokinetics i.v. and i.p., mice", "format": "in vivo, female BALB/c mice", "conditions": "for concentration at 0.25 hr / concentration at 0.5 h / concentration at 4 hr / concentration at 24 hr / concentration at 1 hr: female, BALB/c, mouse, serum, 50 mg/kg; for concentration at 0.25 hr: 50 mg/kg in 20% HPBCD; for concentration at 0.5 h: 0.50 hr", "description": "HMC was prepared as a solution in 20% hydroxypropyl-beta-cyclodextrin (m:v, water). […] Three animals were allocated to each timepoint (15 min, 30 min, 1 hr, 4 hr and 24 hr). At each respective timepoint, animals were euthanased by cervical dislocation and blood collected. Urine was also collected and analysed for HMC. Free HMC was analysed by mass spectroscopy."}, "[3]": {"system": "ME4405 melanoma cells (TRAIL sensitive)", "test": "Apoptosis incidence in melanoma cells", "format": "cell-based"}, "[4]": {"test": "DHE and HMC pharmacokinetics, oral, mice", "format": "in vivo, female BALB/c mice", "description": "HMC and DHE were prepared as homogenous suspensions in 1% CMC (m:v, water). Both formulations were delivered orally by gavage to female BALB/c mice at a dosage of 50 mg/kg. Three animals were allocated to each timepoint (15 min, 30 min, 1 hr, 4 hr and 24 hr). At each respective timepoint, animals were euthanased by cervical dislocation and blood collected. Free HMC was analysed by mass spectroscopy."}, "[5]": {"system": "CP70 ovarian cancer cell line", "test": "Proliferation assay (MTT)", "format": "cell-based", "conditions": "Ovarian CP70, read-out: IC50"}, "rabbit kidney cells (RK)": {"system": "rabbit kidney cells (RK)", "test": "Proliferation assay (MTT), normal cell toxicity", "format": "cell-based", "conditions": "Oryctolagus cuniculus; rabbit kidney cells; read-out: IC50", "description": "The normal cell line NFF (neonatal foreskin fibroblasts) was a sift from Dr. Peter Parsons (Queensland Institute of Medical Research). RK (rabbit kidney) cells were obtained from Miller Whalley (Macquarie University). Both cell lines were cultured in RPMI supplemented with 10% FCS(CSL, Australia), penicillin (100 U/ml), streptomycin ([…]), L-glutamine (2 mM) and sodium bicarbonate (1.2 g/L), and cultured at 37° C. in a humidified atmosphere of 5% CO2.\nIC50 values were determined for each cell line. Cells were seeded in 96-well plates at an appropriate cell density as determined from growth kinetics analysis and cultured for 5 days in the absence and presence of the test compounds. Cell proliferation was assessed after the addition of 20 μl of 3-4,5 dimethylthiazol-2,5-diphenyl tetrazolium bromide (MTT, 2.5 mg/ml in PBS, Sigma) for 3-4 hrs at 37° C. according to manufacturer's instructions. IC50 values were calculated from semi-log plots of % of control proliferation on the y-axis against log dose on the x-axis."}, "MM96L melanoma cell line": {"system": "MM96L melanoma cell line", "test": "Proliferation assay (MTT)", "format": "cell-based", "conditions": "Homo sapiens, Table 15", "method_in_brief": "(§1)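 MTT reduction read-out after 3-4 hrs at 37° C served as the proliferation measure following 5 days of culture with test compounds. IC50 derived from semi-log % control versus log dose curves.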"}, "[6]": {"system": "SKMe128 melanoma cell line", "test": "Proliferation assay (MTT)", "format": "cell-based", "conditions": "Table 15", "method_in_brief": "as §1"}, "[7]": {"system": "IGR3 melanoma cells (Trail-resistant)", "test": "Apoptosis incidence in melanoma cells", "format": "cell-based"}}, "note": "Read-outs that look alike come from different tables or passages of the source.", "data": [{"compound": "COc1ccc(C2c3ccc(O)cc3OCC2c2ccc(O)cc2)cc1", "note": "(stereo not shown) [Compound 1, 3-(4-hydroxyphenyl)-4-(4-methoxyphenyl)chroman-7-ol]", "values": [{"measurement": "IC50", "setting": "[1]", "result": 2260, "unit": "nM"}, {"measurement": "free HMC in urine", "setting": "[2]; 0.5 hr", "result": 3.3, "unit": "mM"}, {"measurement": "free HMC in urine", "setting": "[2]; 1 hr", "result": 3.9, "unit": "mM"}, {"measurement": "serum concentration i.p. vs i.v.", "setting": "[2]; 1 hr post administration", "result": "~4.5", "unit": "fold"}, {"measurement": "free HMC in urine", "setting": "[2]; 4 hr", "result": 0.093, "unit": "mM"}, {"measurement": "concentration at 0.25 hr", "setting": "[2]; ip", "result": 131, "unit": "µM"}, {"measurement": "concentration at 0.5 h", "setting": "[2]; ip", "result": 31.8, "unit": "µM"}, {"measurement": "concentration at 4 hr", "setting": "[2]; ip, 4 hr", "result": 0.15, "unit": "µM"}, {"measurement": "concentration at 24 hr", "setting": "[2]; ip", "result": 0.17, "unit": "µM"}, {"measurement": "concentration at 1 hr", "setting": "[2]; ip, i.p., 1 hr post administration, read-out: serum concentration", "result": 18.7, "unit": "µM"}, {"measurement": "concentration at 1 hr", "setting": "[2]; ip, ip, 1 hr, read-out: Serum HMC", "result": 18.7, "unit": "µM"}, {"measurement": "concentration at 0.25 hr", "setting": "[2]; iv", "result": 1070, "unit": "µM"}, {"measurement": "concentration at 0.5 h", "setting": "[2]; iv", "result": 199, "unit": "µM"}, {"measurement": "concentration at 4 hr", "setting": "[2]; iv, 4 hr", "result": 0.07, "unit": "µM"}, {"measurement": "concentration at 24 hr", "setting": "[2]; iv", "result": 0.05, "unit": "µM"}, {"measurement": "concentration at 1 hr", "setting": "[2]; iv, i.v., 1 hr post administration, read-out: serum concentration", "result": 3.98, "unit": "µM"}, {"measurement": "concentration at 1 hr", "setting": "[2]; iv, iv, 1 hr, read-out: Serum HMC", "result": 3.98, "unit": "µM"}, {"measurement": "HMC in plasma", "setting": "[2]; i.p. administration, up to 1 hour post administration", "result": 131, "unit": "µM"}, {"measurement": "elimination kinetics", "setting": "[2]; i.p., hours 1-4 post administration", "result": 4.6, "unit": "µM/h"}, {"measurement": "elimination kinetics", "setting": "[2]; i.p., up to 1 hour post administration", "result": 112, "unit": "µM/h"}, {"measurement": "HMC in plasma", "setting": "[2]; i.v. administration, up to 1 hour post administration", "result": 1069, "unit": "µM"}, {"measurement": "level of HMC in blood", "setting": "[2]; i.v. in HPBCD, 15 min post administration", "result": 1000, "unit": "µM"}, {"measurement": "rate of excretion from blood", "setting": "[2]; i.v., first hr post administration", "result": "~1000", "unit": "µM/h"}, {"measurement": "rate of excretion from blood", "setting": "[2]; i.v., hours 1-4 post administration, assuming linear excretion", "result": 0.97, "unit": "µM/h"}, {"measurement": "serum concentration of free HMC i.p. vs orally delivered HMC", "setting": "[2]; mice", "result": "~18", "unit": "fold"}, {"measurement": "Percent Apoptosis", "setting": "[3]; 24 hr exposure, 1 uM", "result": 0, "unit": "%"}, {"measurement": "Percent Apoptosis", "setting": "[3]; 24 hr exposure, 2 uM", "result": 8, "unit": "%"}, {"measurement": "Percent Apoptosis", "setting": "[3]; 24 hr exposure, 4 uM", "result": 9, "unit": "%"}, {"measurement": "Percent Apoptosis", "setting": "[3]; 24 hr exposure, 8 uM", "result": 11, "unit": "%"}, {"measurement": "Percent Apoptosis", "setting": "[3]; 24 hr exposure, 20 uM", "result": 19, "unit": "%"}, {"measurement": "Percent Apoptosis", "setting": "[3]; 48 hr exposure, 1 uM", "result": 1.5, "unit": "%"}, {"measurement": "Percent Apoptosis", "setting": "[3]; 48 hr exposure, 2 uM", "result": 8, "unit": "%"}, {"measurement": "Percent Apoptosis", "setting": "[3]; 48 hr exposure, 4 uM", "result": 42, "unit": "%"}, {"measurement": "Percent Apoptosis", "setting": "[3]; 48 hr exposure, 8 uM", "result": 20, "unit": "%"}, {"measurement": "Percent Apoptosis", "setting": "[3]; 48 hr exposure, 20 uM", "result": 18, "unit": "%"}, {"measurement": "concentration at 0.25 hr", "setting": "[4]; female, BALB/c, mouse, plasma, po, 50 mg/kg p.o., Time 0.25, read-out: Free plasma concentration", "result": "0.38 ± 0.04", "unit": "µM"}, {"measurement": "concentration at 0.5 hr", "setting": "[4]; female, BALB/c, mouse, plasma, po, 50 mg/kg p.o., Time 0.5, read-out: Free plasma concentration", "result": "1.3 ± 0.2", "unit": "µM"}, {"measurement": "concentration at 1 hr", "setting": "[4]; female, BALB/c, mouse, plasma, po, 50 mg/kg p.o., Time 1, read-out: Free plasma concentration", "result": "0.95 ± 0.4", "unit": "µM"}, {"measurement": "concentration at 4 hr", "setting": "[4]; female, BALB/c, mouse, plasma, po, 50 mg/kg p.o., Time 4, read-out: Free plasma concentration", "result": "0.19 ± 0.08", "unit": "µM"}, {"measurement": "concentration at 24 hr", "setting": "[4]; female, BALB/c, mouse, plasma, po, 50 mg/kg p.o., Time 24, read-out: Free plasma concentration", "result": 0, "unit": "nM"}, {"measurement": "maximum plasma concentration of the free form", "setting": "[4]; oral 50 mg/kg", "result": 1.3, "unit": "µM"}, {"measurement": "ratio of free:total", "setting": "[4]; oral 50 mg/kg", "result": 0.92}, {"measurement": "time of maximum free concentration", "setting": "[4]; oral 50 mg/kg", "result": 30, "unit": "min"}, {"measurement": "IC50", "setting": "[5]; Table 2.1", "result": "1210 ± 290", "unit": "nM"}, {"measurement": "IC50", "setting": "[5]; Table 2.2 (further studies)", "result": 2100, "unit": "nM"}, {"measurement": "IC50", "setting": "rabbit kidney cells (RK)", "result": 61000, "unit": "nM"}, {"measurement": "IC50", "setting": "MM96L melanoma cell line", "result": "1310 ± 380", "unit": "nM"}, {"measurement": "IC50", "setting": "[6]", "result": "680 ± 160", "unit": "nM"}, {"measurement": "Percent Apoptosis", "setting": "[7]; 24 hr exposure, 1 uM", "result": 8, "unit": "%"}, {"measurement": "Percent Apoptosis", "setting": "[7]; 24 hr exposure, 2 uM", "result": 11, "unit": "%"}, {"measurement": "Percent Apoptosis", "setting": "[7]; 24 hr exposure, 4 uM", "result": 39, "unit": "%"}, {"measurement": "Percent Apoptosis", "setting": "[7]; 24 hr exposure, 8 uM", "result": 41, "unit": "%"}, {"measurement": "Percent Apoptosis", "setting": "[7]; 24 hr exposure, 20 uM", "result": 32, "unit": "%"}, {"measurement": "Percent Apoptosis", "setting": "[7]; 48 hr exposure, 1 uM", "result": 1, "unit": "%"}, {"measurement": "Percent Apoptosis", "setting": "[7]; 48 hr exposure, 2 uM", "result": 9, "unit": "%"}, {"measurement": "Percent Apoptosis", "setting": "[7]; 48 hr exposure, 4 uM", "result": 21, "unit": "%"}, {"measurement": "Percent Apoptosis", "setting": "[7]; 48 hr exposure, 8 uM", "result": 38, "unit": "%"}, {"measurement": "Percent Apoptosis", "setting": "[7]; 48 hr exposure, 20 uM", "result": 38, "unit": "%"}]}]}
